Consider six molecules from patent US20160287602A1, “METHODS FOR PROMOTING MOTOR NEURON SURVIVAL” (PRESIDENT AND FELLOWS OF HARVARD COLLEGE, priority 2013, published 2016).

Each structure is given as a SMILES string. Entries after “also recorded” stand apart in the source; their conditions may differ.

Assay [1] has as its system wild-type (Hb9::GFP) mouse ESC derived MNs. The experiment in a line: MN survival after trophic factor withdrawal, mixed culture. The format is cell-based. To be noted: for survival of MNs (number of surviving MNs): trophic factor withdrawal, 3 days, wild-type Hb9::GFP MNs. An excerpt:
In the present study, we have screened highly specific small molecule kinase inhibitors to identify those which could promote MN survival. For the screen, we generated MNs from wild-type (Hb9::GFP) and SOD1^G93A (SOD1^G93A/Hb9::GFP) mouse ESCs using published protocols (Di Giorgio et al., 2007). We withdrew trophic factors as a standard method to induce MN death. Cell plating density as well as timing for initiation and duration of trophic factor withdrawal were used exactly as published to achieve ˜80% MN death in 3 days (FIG. 1A) (Yang et al., 2013). […] We continued to work with this compound class as it reproducibly promoted survival of both MNs types and the effect was robust. We further reasoned that since this compound class promoted survival of both MN types, the probability of its working in other contexts such as on human MNs and in the ALS mouse model was maximum. […]
(§1) Trophic factors were removed and ZM447439 was added to the cultures as previously and MN survival was analyzed on day 7, 14 & 21.

Assay [2] has as its system SOD1^G93A (SOD1^G93A/Hb9::GFP) mouse ESC derived MNs. The description is as above. The class given is cell-based. To be noted: trophic factor withdrawal, 3 days; SOD1^G93A/Hb9::GFP MNs.
Text: In the present study, we have screened highly specific small molecule kinase inhibitors to identify those which could promote MN survival. For the screen, we generated MNs from wild-type (Hb9::GFP) and SOD1^G93A (SOD1^G93A/Hb9::GFP) mouse ESCs using published protocols (Di Giorgio et al., 2007). We withdrew trophic factors as a standard method to induce MN death. Cell plating density as well as timing for initiation and duration of trophic factor withdrawal were used exactly as published to achieve ˜80% MN death in 3 days (FIG. 1A) (Yang et al., 2013). […] We continued to work with this compound class as it reproducibly promoted survival of both MNs types and the effect was robust. We further reasoned that since this compound class promoted survival of both MN types, the probability of its working in other contexts such as on human MNs and in the ALS mouse model was maximum.
High expression of Aurora kinases is associated with various types of cancer (Sen et al., 1997; Reichardt et al., 2003; Tchatchou et al., 2007) and there are many AKIs including VX-680 and ZM447439 that are in clinical trials for anti-cancer drug development.
as §1

The test system of assay [3] is FACS purified Hb9::GFP MNs. The experiment in a line: MN survival after trophic factor withdrawal, FACS purified MN culture. Particulars: FACS purified MN cultures, trophic factors withdrawn, FIG. 1C. The format is cell-based, mouse. An excerpt:
ESC-derived MN culture achieves ˜30%-50% MN differentiation efficiency and is therefore highly heterogeneous. To examine whether AKIs specifically act in a cell-autonomous or non-cell-autonomous manner, we established a highly enriched MN culture through FACS purification based on Hb9::GFP reporter expression. […] Next, we asked whether AKIs exert their survival promoting effect only cell-autonomously or whether they also function non-cell-autonomously to rescue MN death. To address this question we produced astrocyte conditioned medium (ACM) by incubating primary murine astrocytes with AKIs (VX-680 and ZM447439). The ACM was then dialyzed using a dialyzer with pore size appropriate for eliminating residual AKIs.

Assay [4] concerns human iPSC derived MNs (healthy control, SOD1, TDP-43, C90RF72). Particulars: human MNs derived from wild-type and ALS-patient-iPSCs (Yang et al., 2013); cited from earlier work.
For assay [5], the system named is wild-type (Hb9::GFP) mouse ESC derived MNs. Particulars: previous small molecule survival screen (Yang et al., 2013); cited from earlier work.
The subject of assay [6] is SOD1^G93A (SOD1^G93A/Hb9::GFP) mouse ESC derived MNs. To be noted: previous small molecule survival screen (Yang et al., 2013); cited from earlier work.
The conditions of assay [7]: ALS (Miller et al., 2007); cited from earlier work.
The test system of a further assay is SOD1^G93A/Hb9::GFP MNs. The experiment in a line: Number of synapses per MN (synapsin/PSD-95 co-localization, automated imager). The class given is cell-based, mouse. From the text:
(§2) To examine whether MNs kept alive by AKIs maintain morphological integrity we carried out a series of analyses on surviving MNs in the absence of trophic factors. […] We also used an automated imager to analyze the number of synapses per MN by counting co-localized regions positive for the presynaptic marker synapsin and the postsynaptic marker PSD-95.

The next assay has as its system Hb9::GFP MNs. The description is as above. The format is cell-based, mouse.
Text: as §2

Assay [8] has as its system human iPSC derived MNs (healthy control, SOD1, TDP-43, C90RF72). The experiment in a line: Human iPSC derived MN survival. The format is cell-based. Particulars: all human iPSC derived MN cultures; AraC treated. An excerpt: We produced MNs from human iPSCs lines including a healthy control, two ALS patients expressing confirmed mutations in SOD1 (Boulting et al., 2011), two with mutations in TDP-43 and one in C90RF72. We treated these cultures with AraC to minimize the number of proliferating progenitors. […] We also examined the effect of SOD 1^G93A astrocytes co-culture on iPSC derived MNs. We found no toxic effect on survival in any of the patient iPSC derived MNs, but we did observe decreased MN survival in the control iPSC derived MNs. […] We also looked at the effect of AKIs on morphology and synapse formation. […] In addition, by immunoblot we observed that ZM447439 enhanced synaptic protein, synaptophysin, expression in both the presence and absence of trophic factors.

The test system of the next assay is MNs. The experiment in a line: Lentivirus knockdown of Prkarlb, MN survival. The class given is cell-based, mouse. From the text:
(§3) Next we sought to investigate the mechanism by which AKIs promote MN survival. To evaluate this comprehensively we performed microarray analysis to compare gene expression between MNs cultured with: 1) Trophic factors (+TF), 2) No trophic factors (−TF), 3) VX-680 in the absence of TFs, and 4) ZM447439 in the absence of TFs. […] Gene expression was compared between +TF and −TF, VX-680 and −TF, and ZM447439 and −TF. With a cut off of more than 3 fold difference, there were 85 genes overlapping in all three comparison in Hb9::GFP MNs and 57 in SOD1^G93A/Hb9::GFP MNs. We found 39 overlapping genes when we compared both types of MNs (FIG. 5B). […] We analyzed the shortlist of 39 genes by using DAVID functional annotation bioinformatics microarray analysis software to find the potential pathways involved in MN survival. […] PKA is known to phosphorylate BAD protein, leading to increased cell survival (Jose M. LIZCANO et al., 2000; Julian Downward et al., Nature cell biology 1999; Komaki S et al., Neurosci Lett 2012). […] We further investigated this pathway by lentivirus knockdown of Prkarlb.

Assay [9] concerns Hb9::GFP and SOD1^G93A/Hb9::GFP MNs. The experiment in a line: Microarray analysis of gene expression in MNs. To be noted: compound in the absence of TFs versus -TF. The class given is cell-based, mouse.
Text: as §3

The subject of assay [10] is synaptophysin in SOD1^G93A/Hb9::GFP MN cultures. The experiment in a line: Synaptophysin immunoblotting. The format is cell-based, mouse. In general terms: In western blotting, separated proteins are transferred to a membrane and probed.
In assay [11] the test system is synaptophysin in Hb9::GFP MN cultures. The experiment in a line: Synaptophysin immunoblotting. The class given is cell-based, mouse.
Assay [12] has as its system phosphorylated BAD (pBAD). The experiment in a line: Phosphorylated BAD immunostaining in surviving MNs. The format is cell-based, mouse. Particulars: absence of TFs.
In assay [13] the test system is HuES-3/Hb9::GFP human ESC derived MNs. The experiment in a line: Human ESC derived MN survival after trophic factor withdrawal. The class given is cell-based. Particulars: trophic factors withdrawn; AraC pre-treated cultures. From the text: We generated MNs from a human ESC line expressing an HB9::GFP transgene [HuES-3/Hb9::GFP (Di Giorgio et al., 2008)]. Human ESC derived MN cultures were pre-treated with AraC to eliminate progenitor cells. We induced MN death by again withdrawing trophic factors. […] We also investigated the toxic effect of SOD1^G93A astrocytes on human ESC derived MN survival. We found significant death of human MNs cultured on mutant astrocytes.

In another assay the test system is Prkarlb. The experiment in a line: Prkar1b immunostaining in surviving MNs. The format is cell-based, mouse. Particulars: absence of TFs.
The conditions of assay [14]: ALS drug candidates; cited from earlier work.

Regarding `COc1cc2ncnc(Nc3ccc(NC(=O)c4ccccc4)cc3)c2cc1OC.Cl` [4-4-Ben, N-[4-[(6,7-Dimethoxy-4-quinazolinyl)amino]phenyl] benzamide Hydrochloride], the “survival of MNs (number of surviving MNs)” value in assay [1] and in [2] was “consistently increased the survival of MNs” throughout. For the same molecule, in assay [3], the MN survival entry is “rescued MN survival in a dose dependent fashion”.

Consider `O=C1Cc2c([nH]c3ccc(Br)cc23)-c2ccccc2N1` [Kenpaullone], for which the “survival of human MNs” value in [4] is listed as “able to improve the survival”. In addition, the “healthy survival of MNs” value in assay [5] and in assay [6] was “impressive ability to prolong the healthy survival” throughout.

`Nc1nc2ccc(OC(F)(F)F)cc2s1` [Riluzole]: the functional improvement entry in assay [7] is on record as “very little functional improvement; also recorded: little functional improvement”.

On to `Cc1cc(Nc2cc(N3CCN(C)CC3)nc(Sc3ccc(NC(=O)C4CC4)cc3)n2)[nH]n1` [VX-680, Tozasertib], for which the “survival effect in dose dependent assay, comparison among AKIs” value in assay [1] (mixed MN culture, FIG. 1B) was “most effective and potent in promoting MN survival”. In addition, the “survival of MNs (number of surviving MNs)” value in [1] is “consistently increased the survival of MNs; also recorded: most potent and robust at increasing survival”; in [2], “consistently increased the survival of MNs; also recorded: most potent and robust at increasing survival”. Also, the “number of synapses per MN” value is reported as “preserved the number of synapses” in the assay on SOD1^G93A/Hb9::GFP MNs (absence of trophic factors, SOD1^G93A/Hb9::GFP MNs); “increased the number of synapses per MN” in the assay on SOD1^G93A/Hb9::GFP MNs (neurotrophin containing medium); “preserved the number of synapses” in the assay with Hb9::GFP MNs (absence of trophic factors, Hb9::GFP MNs); “increased the number of synapses per MN” with Hb9::GFP MNs (neurotrophin containing medium). Besides, the MN survival entry is on record as “substantially increase MN survival” in assay [8] and “rescued MN survival in a dose dependent fashion” in [3]. The “MN survival on knocking down Prkarlb in the presence of the compound” value with MNs is listed as “effectively decreased MN survival”. In assay [9], the “expression of genes related to synapse formation (Syt1, Snap25 and Sv2c, Map2 and Dcx)” value was “upregulated”. The “expression of synaptic protein synaptophysin” value in [10] and in assay [11] was “increased expression” each time. For the same molecule, the “levels of phosphorylated BAD (pBAD)” value in assay [12] is reported as “increased levels”. In [13], the “human MN survival” value was “rescued human MN death”. The “levels of Prkarlb” value in the assay with Prkarlb is listed as “increased levels”.

For the molecule `CCCN[C@@H]1CCc2nc(N)sc2C1` [dexpramipexole], the “outcome of phase III clinical trials” value in assay [14] is reported as “failed”.

As for `CC(C)CCC[C@@H](C)[C@H]1CC[C@H]2[C@@H]3CCC4=CC(=NO)CC[C@]4(C)[C@H]3CC[C@]12C` [olesoxime], in [14], the “outcome of phase III clinical trials” value is listed as “failed”.
